Laboratory results: US4556658A, “7-Amino-1-cyclopropyl-6,8-difluoro-1,4-di hydro-4-oxo-quinoline-3-carboxylic acids and antibacterial agents containing these compounds” (Bayer Aktiengesellschaft, priority 1983, dated 1985)
Values after ≈ are worked out from the molar mass of the structure shown. Read-outs that look alike come from different tables or passages of the source.

Columns and labels:
Assay type in all cases: cell-based
Proteus mir. 8223 = test: MIC, agar dilution test, Proteus mir. 8223; settings: Proteus mirabilis
Text: (§1) | Denley multipoint inoculator

Proteus morg. 932 = test: MIC, agar dilution test, Proteus morg. 932; settings: Morganella morganii, Isosensitest medium
Text: as §1

[1] = system: Streptococc. faecal. 9790; test: MIC, agar dilution test, Streptococc. faecal. 9790
Text: as §1

Pseudomonas W. = test: MIC, agar dilution test, Pseudomonas W.
Text: as §1

[2] = Proteus mir. 8223, agar dilution, Isosensitest medium, read-out: MIC
[3] = Streptococc. faecal. 9790, agar dilution, Isosensitest medium, read-out: MIC
[4] = Pseudomonas W., agar dilution, Isosensitest medium, read-out: MIC

SMILES | MIC (Proteus mir. 8223; [2]) [µg/mL] | MIC (Proteus morg. 932) [µg/mL] | MIC [1, 3] [µg/mL] | MIC (Pseudomonas W.; [4]) [µg/mL] | MIC (Proteus mir. 8223; MIR.8223) [µg/mL] | MIC [1] [µg/mL] | MIC (Pseudomonas W.; Pseudomonas) [µg/mL]
CCN1CCN(c2c(F)cc3c(=O)c(C(=O)O)cn(C4CC4)c3c2F)CC1C (centres unmarked) [Example 14] | 16000 (≈ 40900 µM) | 30 (≈ 76.6 µM) | 1000 (≈ 2550 µM) | 4000 (≈ 10200 µM) |  |  | 
CCN1CCN(c2c(F)cc3c(=O)c(C(=O)O)cn(C4CC4)c3c2F)CC1 [Example 13] | 4000 (≈ 10600 µM) |  | 1000 (≈ 2650 µM) | 500 (≈ 1320 µM) |  |  | 
Cl.O=C(O)c1cn(C2CC2)c2c(F)c(N3CCNCC3)c(F)cc2c1=O [Example 1, 1-cyclopropyl-6,8-difluoro-7-(piperazin-1-yl)-1,4-dihydro-4-oxoquinoline-3-carboxylic acid hydrochloride] |  |  |  |  | 2000 | 250 | 60
O=C(O)c1cn(C2CC2)c2c(F)c(N3CCOCC3)c(F)cc2c1=O [Example 7, 1-cyclopropyl-6,8-difluoro-7-(morpholin-4-yl)-1,4-dihydro-4-oxoquinoline-3-carboxylic acid] | 8000 (≈ 22800 µM) | 60 (≈ 171 µM) | 500 (≈ 1430 µM) | 1000 (≈ 2850 µM) |  |  | 
O=C(O)c1cn(C2CC2)c2c(F)c(N3CCN(CCO)CC3)c(F)cc2c1=O [Example 6] | 4000 (≈ 10200 µM) |  | 500 (≈ 1270 µM) | 1000 (≈ 2540 µM) |  |  | 
CC1CN(c2c(F)cc3c(=O)c(C(=O)O)cn(C4CC4)c3c2F)CCN1 (centres unmarked) [Example 3] | 4000 (≈ 11000 µM) |  | 500 (≈ 1380 µM) | 500 (≈ 1380 µM) |  |  | 
CN1CCN(c2c(F)cc3c(=O)c(C(=O)O)cn(C4CC4)c3c2F)CC1.Cl [Example 2, 1-cyclopropyl-6,8-difluoro-7-(4-methylpiperazin-1-yl)-1,4-dihydro-4-oxoquinoline-3-carboxylic acid hydrochloride] | 2000 |  | 500 |  |  |  | 
CC1CN(c2c(F)cc3c(=O)c(C(=O)O)cn(C4CC4)c3c2F)CC(C)N1 (centres unmarked) [Example 5] | 4000 (≈ 10600 µM) |  | 500 (≈ 1320 µM) | 1000 (≈ 2650 µM) |  |  | 
O=C(O)c1cn(C2CC2)c2c(F)c(N3CCCC3)c(F)cc2c1=O [Example 11] | 8000 (≈ 23900 µM) | 500 (≈ 1500 µM) | 500 (≈ 1500 µM) | 4000 (≈ 12000 µM) |  |  | 
O=C(O)c1cn(C2CC2)c2c(F)c(N3CCC(O)CC3)c(F)cc2c1=O [Example 8] | 4000 (≈ 11000 µM) | 30 (≈ 82.3 µM) |  | 1000 (≈ 2740 µM) |  |  | 

The remaining compounds from weak to strong by MIC (Proteus mir. 8223; [2]), led by results:

MIC (Proteus mir. 8223; [2]) [µg/mL] | MIC (Proteus morg. 932) [µg/mL] | MIC [1, 3] [µg/mL] | MIC (Pseudomonas W.; [4]) [µg/mL] | SMILES | MIC (Proteus mir. 8223; MIR.8223) [µg/mL] | MIC [1] [µg/mL] | MIC (Pseudomonas W.; Pseudomonas) [µg/mL]
16000 | 60 | 2000 | 8000 | CC(C)N1CCN(c2c(F)cc3c(=O)c(C(=O)O)cn(C4CC4)c3c2F)CC1.I [Example 12, 1-cyclopropyl-6,8-difluoro-7-(4-isopropylpiperazin-1-yl)-1,4-dihydro-4-oxoquinoline-3-carboxylic acid hydriodide] |  |  | 
8000 (≈ 19800 µM) | 60 (≈ 149 µM) | 2000 (≈ 4960 µM) | 8000 (≈ 19800 µM) | O=C(O)c1cn(C2CC2)c2c(F)c(N3CCN(CC4CC4)CC3)c(F)cc2c1=O [Example 15, 1-cyclopropyl-7-(4-cyclopropylmethylpiperazin-1-yl)-6,8-difluoro-1,4-dihydro-4-oxoquinoline-3-carboxylic acid] |  |  | 
8000 (≈ 21100 µM) | 1000 (≈ 2640 µM) | 250 (≈ 661 µM) | 4000 (≈ 10600 µM) | CC1CN(c2c(F)cc3c(=O)c(C(=O)O)cn(C4CC4)c3c2F)CC(C)O1 (centres unmarked) [Example 10] |  |  | 
8000 (≈ 21200 µM) |  | 500 (≈ 1320 µM) | 1000 (≈ 2650 µM) | CCC1CN(c2c(F)cc3c(=O)c(C(=O)O)cn(C4CC4)c3c2F)CCN1 (centres unmarked) [Example 4] |  |  | 
4000 (≈ 9540 µM) |  | 500 (≈ 1190 µM) | 250 (≈ 596 µM) | CC(=O)CCN1CCN(c2c(F)cc3c(=O)c(C(=O)O)cn(C4CC4)c3c2F)CC1 [Example 28, 1-cyclopropyl-6,8-difluoro-1,4-dihydro-4-oxo-7-[4-(3-oxobutyl)-piperazin-1-yl]-quinoline-3-carboxylic acid] |  |  | 
